Data reported in patent US20240101549A1, “N-(2-(4-CYANOTHIAZOLIDIN-3-YL)-2-OXOETHYL)-QUINOLINE-4-CARBOXAMIDES” (AstraZeneca AB, priority 2020, published 2024).
Values after ≈ are worked out from the molar mass of the structure shown. Where two headings read alike, the source gives them in different places.

What was measured:
Rat Hepatocytes (rHep) = assay: Metabolic stability in rat hepatocytes (rHep); type: in vitro ADME; conditions: n = 1 or geometric mean of n = 2-3
Caco-2 cell permeability = type: in vitro ADME; conditions: human
Protocol: (§1) Caco-2 cell permeability was measured as described in Mol Pharm 2017, 14, 1601.

Caco-2 cell = Caco-2 cell permeability; type: in vitro ADME; conditions: bidirectional (ABBA); for Caco2 Bidirectional (ABBA) A to B Papp / Caco2 Bidirectional (ABBA) B to A Papp: n = 1 or average of n = 2-4
Protocol: as §1

FAP = FAP (Macaca fascicularis, UniProt A0A2K5VGH4); assay: FAP plasma inhibition assay, cynomolgus plasma; type: biochemical; conditions: cynomolgus plasma diluted 1:40, 75 μM Ala-Pro-AMC; n = 1; read-out: FAP Cyno Plasma IC50
Protocol: D. FAP Plasma Inhibition Assay This assay was adapted from the method described in Example 237 for detection of FAP target engagement enzyme activity in plasma. […] Compounds were tested using 10 CR, 3 fold dilution series from 500 nM FAC. Two replicates for each assay point were run on the same plate. A fluorescence blank read was taken before substrate addition. […] Plates were incubated for 40 min at rt in the dark. […] IC50 values were determined by plotting % inhibition versus log compound concentration.

[1] = Metabolic stability in human liver microsomes (HLM); type: in vitro ADME; conditions: n = 1 or average of n = 2-3
Protocol: Metabolic stability in HLM was measured as described in J Comput Aided Mol Des 2015, 29, 795.

Kinetic solubility = type: physicochemical; conditions: kinetic from dmso stock
Protocol: Kinetic solubility was measured as described in Comput Aided Mol Des 2015, 29, 795.

[2] = Caco-2, AB intrinsic, n = 1 or average of n = 2-4, read-out: Caco2 AB Intrinsic Papp

Sequence of FAP (A0A2K5VGH4 entry or part of it): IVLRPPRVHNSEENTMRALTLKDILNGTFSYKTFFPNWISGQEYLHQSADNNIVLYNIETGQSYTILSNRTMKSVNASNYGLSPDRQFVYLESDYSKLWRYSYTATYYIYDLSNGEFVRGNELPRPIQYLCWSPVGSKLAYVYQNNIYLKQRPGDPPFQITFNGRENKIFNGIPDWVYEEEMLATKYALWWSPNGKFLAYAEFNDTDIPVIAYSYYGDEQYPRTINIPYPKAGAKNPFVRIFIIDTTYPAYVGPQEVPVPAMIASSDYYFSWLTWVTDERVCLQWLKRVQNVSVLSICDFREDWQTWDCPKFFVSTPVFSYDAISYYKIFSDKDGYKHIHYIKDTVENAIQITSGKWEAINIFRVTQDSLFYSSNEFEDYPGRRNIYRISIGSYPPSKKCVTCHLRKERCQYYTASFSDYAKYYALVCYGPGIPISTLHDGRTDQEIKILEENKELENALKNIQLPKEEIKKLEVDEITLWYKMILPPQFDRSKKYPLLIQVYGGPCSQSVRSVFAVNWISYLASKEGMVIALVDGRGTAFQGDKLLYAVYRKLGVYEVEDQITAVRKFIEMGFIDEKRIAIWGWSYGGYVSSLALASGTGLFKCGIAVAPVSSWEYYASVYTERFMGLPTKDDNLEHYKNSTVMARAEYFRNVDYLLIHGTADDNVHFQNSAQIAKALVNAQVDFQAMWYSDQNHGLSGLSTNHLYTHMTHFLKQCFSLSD

With `CC1CC(F)(F)CCN1c1ccc2nccc(C(=O)NCC(=O)N3CSC[C@H]3C#N)c2c1` (mixture of isomers) [Example 44, N-(2-((R)-4-Cyanothiazolidin-3-yl)-2-oxoethyl)-6-((RS)-4,4-difluoro-2-methylpiperidin-1-yl)quinoline-4-carboxamide] the “rHep CLint” value (Rat Hepatocytes (rHep)) was 160 μL/min/1E6.
For `CC1(C)COC12CN(c1ccc3nccc(C(=O)NCC(=O)N4CSC[C@H]4C#N)c3c1)C2` [Example 18, (R)—N-(2-(4-Cyanothiazolidin-3-yl)-2-oxoethyl)-6-(3,3-dimethyl-1-oxa-6-azaspiro[3.3]heptan-6-yl)quinoline-4-carboxamide], the Papp A→B (Caco-2 cell permeability; [2]) was 13 ×10⁻⁶ cm/s, the “Caco2 Bidirectional (ABBA) Efflux Ratio” value (Caco-2 cell) was 34 and the “Caco2 Bidirectional (ABBA) A to B Papp” value (Caco-2 cell) was 0.90 1E−6 · cm/s. For the same molecule, the “Caco2 Bidirectional (ABBA) B to A Papp” value (Caco-2 cell) was 31 1E−6 · cm/s.
In the case of `N#C[C@@H]1CSCN1C(=O)CNC(=O)c1ccnc2ccc(N3CC4(COC4)C3)cc12` [Example 166, (R)—N-(2-(4-Cyanothiazolidin-3-yl)-2-oxoethyl)-6-(2-oxa-6-azaspiro[3.3]heptan-6-yl)quinoline-4-carboxamide], the IC50 (FAP) is reported as 0.3 nM, the Papp A→B (Caco-2 cell permeability; [2]) is reported as 2 ×10⁻⁶ cm/s and the “Caco2 Bidirectional (ABBA) Efflux Ratio” value (Caco-2 cell) is reported as 24. The “Caco2 Bidirectional (ABBA) A to B Papp” value (Caco-2 cell) was 0.56 1E−6 · cm/s and the “Caco2 Bidirectional (ABBA) B to A Papp” value (Caco-2 cell) was 13 1E−6 · cm/s.
For `N#C[C@@H]1CSCN1C(=O)CNC(=O)c1ccnc2ccc(N3CCCC3C3CC3)cc12` (single isomer, unassigned) [Example 200, N-(2-((R)-4-Cyanothiazolidin-3-yl)-2-oxoethyl)-6-((R*)-2-cyclopropyl-pyrrolidin-1-yl)quinoline-4-carboxamide], the “rHep CLint” value (Rat Hepatocytes (rHep)) was >300 μL/min/1E6 and the “HLM CLint” value [1] was >300 µL/min/mg.
For `COC1CCCN(c2ccc3nccc(C(=O)NCC(=O)N4CSC[C@H]4C#N)c3c2)C1` (mixture of isomers) [Example 41, N-(2-((R)-4-Cyanothiazolidin-3-yl)-2-oxoethyl)-6-((RS)-3-methoxypiperidin-1-yl)quinoline-4-carboxamide], the “rHep CLint” value (Rat Hepatocytes (rHep)) was 12 μL/min/1E6, the Papp A→B (Caco-2 cell permeability; [2]) was 16 ×10⁻⁶ cm/s and the microsomal CLint [1] was 30 µL/min/mg.
For `CC1CCCN(c2ccc3nccc(C(=O)NCC(=O)N4CSC[C@H]4C#N)c3c2)C1=O` (single isomer, unassigned) [Example 204, N-(2-((R)-4-Cyanothiazolidin-3-yl)-2-oxoethyl)-6-((R*)-3-methyl-2-oxopiperidin-1-yl)quinoline-4-carboxamide], the “rHep CLint” value (Rat Hepatocytes (rHep)) was 1.8 μL/min/1E6 and the microsomal CLint [1] was 8 µL/min/mg.
In the case of `N#C[C@@H]1CSCN1C(=O)CNC(=O)c1ccnc2ccc(-c3ccnn3C3CCCCO3)cc12` (mixture of isomers) [Example 176], the “rHep CLint” value (Rat Hepatocytes (rHep)) is reported as 15 μL/min/1E6 and the solubility (Kinetic solubility) is reported as 800 µM (≈ 381 µg/mL).
For `N#C[C@@H]1CSCN1C(=O)CNC(=O)c1ccnc2ccc(N3CCCC3C3CC3)cc12` (single isomer, unassigned) [Example 199, N-(2-((R)-4-Cyanothiazolidin-3-yl)-2-oxoethyl)-6-((R*)-2-cyclopropyl-pyrrolidin-1-yl)quinoline-4-carboxamide], the “rHep CLint” value (Rat Hepatocytes (rHep)) was 250 μL/min/1E6 and the microsomal CLint [1] was > 300 µL/min/mg.
For `N#C[C@@H]1CSCN1C(=O)CNC(=O)c1ccnc2ccc(N3CCOC4(CCOCC4)C3)cc12` [Example 99, (R)—N-(2-(4-cyanothiazolidin-3-yl)-2-oxoethyl)-6-(1,9-dioxa-4-azaspiro[5.5]undecan-4-yl)quinoline-4-carboxamide], the “Caco2 Bidirectional (ABBA) Efflux Ratio” value (Caco-2 cell) was 46, the “Caco2 Bidirectional (ABBA) A to B Papp” value (Caco-2 cell) was 0.46 1E−6 · cm/s and the “Caco2 Bidirectional (ABBA) B to A Papp” value (Caco-2 cell) was 21 1E−6 · cm/s.
With `N#C[C@@H]1CSCN1C(=O)CNC(=O)c1ccnc2ccc(N3CCOCC3C(F)(F)F)cc12` (single isomer, unassigned) [Example 85, N-(2-((R)-4-Cyanothiazolidin-3-yl)-2-oxoethyl)-6-((R*)-3-(trifluoromethyl)-morpholino)quinoline-4-carboxamide] the “rHep CLint” value (Rat Hepatocytes (rHep)) was 35 μL/min/1E6 and the solubility (Kinetic solubility) was 800 µM (≈ 384 µg/mL).
In the case of `CC1N(c2ccc3nccc(C(=O)NCC(=O)N4CSC[C@H]4C#N)c3c2)CC1(F)F` (mixture of isomers) [Example 159, N-(2-((R)-4-Cyanothiazolidin-3-yl)-2-oxoethyl)-6-((RS)-3,3-difluoro-2-methylazetidin-1-yl)quinoline-4-carboxamide], the “rHep CLint” value (Rat Hepatocytes (rHep)) is reported as 47 μL/min/1E6.
For `N#C[C@@H]1CSCN1C(=O)CNC(=O)c1ccnc2ccc(N3CC(O)C(F)(F)C3)cc12` (mixture of isomers) [Example 224, N-(2-((R)-4-Cyanothiazolidin-3-yl)-2-oxoethyl)-6-((RS)-3,3-difluoro-4-hydroxypyrrolidin-1-yl)quinoline-4-carboxamide], the “rHep CLint” value (Rat Hepatocytes (rHep)) was <1 μL/min/1E6, the solubility (Kinetic solubility) was 50 µM (≈ 22.4 µg/mL) and the Papp A→B (Caco-2 cell permeability; [2]) was 1.2 ×10⁻⁶ cm/s. The microsomal CLint [1] was < 3 µL/min/mg.
In the case of `CC1CCN(c2ccc3nccc(C(=O)NCC(=O)N4CSC[C@H]4C#N)c3c2)C1=O` (single isomer, unassigned) [Example 201, N-(2-((R)-4-Cyanothiazolidin-3-yl)-2-oxoethyl)-6-((R*)-3-methyl-2-oxopyrrolidin-1-yl)quinoline-4-carboxamide], the “rHep CLint” value (Rat Hepatocytes (rHep)) is reported as <1 μL/min/1E6, the solubility (Kinetic solubility) is reported as 90 µM (≈ 38.1 µg/mL) and the Papp A→B (Caco-2 cell permeability; [2]) is reported as 4.8 ×10⁻⁶ cm/s. The microsomal CLint [1] was < 3 µL/min/mg.
In the case of `N#C[C@@H]1CSCN1C(=O)CNC(=O)c1ccnc2ccc(N3CC4(CC(F)C4)C3)cc12` [Example 155, (R)—N-(2-(4-Cyanothiazolidin-3-yl)-2-oxoethyl)-6-(6-fluoro-2-azaspiro[3.3]heptan-2-yl)quinoline-4-carboxamide], the “Caco2 Bidirectional (ABBA) Efflux Ratio” value (Caco-2 cell) is reported as 6.5, the “Caco2 Bidirectional (ABBA) A to B Papp” value (Caco-2 cell) is reported as 4.2 1E−6 · cm/s and the “Caco2 Bidirectional (ABBA) B to A Papp” value (Caco-2 cell) is reported as 27 1E−6 · cm/s.
For `N#C[C@@H]1CSCN1C(=O)CNC(=O)c1ccnc2ccc(N3CCOCC3C(F)(F)F)cc12` (single isomer, unassigned) [Example 84, N-(2-((R)-4-Cyanothiazolidin-3-yl)-2-oxoethyl)-6-((R*)-3-(trifluoromethyl)-morpholino)quinoline-4-carboxamide], the “rHep CLint” value (Rat Hepatocytes (rHep)) was 26 μL/min/1E6.
With `CC1CCN(c2ccc3nccc(C(=O)NCC(=O)N4CSC[C@H]4C#N)c3c2)C1=O` (single isomer, unassigned) [Example 202, N-(2-((R)-4-Cyanothiazolidin-3-yl)-2-oxoethyl)-6-((R*)-3-methyl-2-oxopyrrolidin-1-yl)quinoline-4-carboxamide] the “rHep CLint” value (Rat Hepatocytes (rHep)) was <1 μL/min/1E6.
In the case of `N#C[C@@H]1CSCN1C(=O)CNC(=O)c1ccnc2ccc(N3C[C@@H](F)[C@H](F)C3)cc12` (single isomer, unassigned) [Example 214], the solubility (Kinetic solubility) is reported as 230 µM (≈ 99.2 µg/mL) and the microsomal CLint [1] is reported as 27 µL/min/mg.
For `CC1CCCN(c2ccc3nccc(C(=O)NCC(=O)N4CSC[C@H]4C#N)c3c2)C1=O` (single isomer, unassigned) [Example 203, N-(2-((R)-4-Cyanothiazolidin-3-yl)-2-oxoethyl)-6-((R*)-3-methyl-2-oxopiperidin-1-yl)quinoline-4-carboxamide], the “rHep CLint” value (Rat Hepatocytes (rHep)) was 2.9 μL/min/1E6, the Papp A→B (Caco-2 cell permeability; Caco-2, bidirectional (ABBA), A to B, n = 1 or average of n = 2-4, read-out: Caco2 Bidirectional (ABBA) A to B Papp) was 0.4 ×10⁻⁶ cm/s and the Papp B→A (Caco-2 cell permeability; Caco-2, bidirectional (ABBA), B to A, n = 1 or average of n = 2-4, read-out: Caco2 Bidirectional (ABBA) B to A Papp) was 8 ×10⁻⁶ cm/s. For the same molecule, the efflux ratio (Caco-2 cell permeability; Caco-2, bidirectional (ABBA), read-out: Caco2 Bidirectional (ABBA) Efflux Ratio) was 20.
For `COC1(C)CCN(c2ccc3nccc(C(=O)NCC(=O)N4CSC[C@H]4C#N)c3c2)CC1` [Example 42, (R)—N-(2-(4-Cyanothiazolidin-3-yl)-2-oxoethyl)-6-(4-methoxy-4-methylpiperidin-1-yl)quinoline-4-carboxamide], the solubility (Kinetic solubility) was 850 µM (≈ 386 µg/mL).
`N#C[C@@H]1CSCN1C(=O)CNC(=O)c1ccnc2ccc(N3CC4(CCC4)C3)cc12` [Example 17, (R)—N-(2-(4-Cyanothiazolidin-3-yl)-2-oxoethyl)-6-(2-azaspiro[3.3]heptan-2-yl)quinoline-4-carboxamide] gave a microsomal CLint [1] of 48 µL/min/mg.
For `CC1(F)CCN(c2ccc3nccc(C(=O)NCC(=O)N4CSC[C@H]4C#N)c3c2)C1` (mixture of isomers) [Example 198, N-(2-((R)-4-Cyanothiazolidin-3-yl)-2-oxoethyl)-6-((RS)-3-fluoro-3-methylpyrrolidin-1-yl)quinoline-4-carboxamide], the “rHep CLint” value (Rat Hepatocytes (rHep)) was 22 μL/min/1E6 and the microsomal CLint [1] was 20 µL/min/mg.
